Measured values published in PubChem BioAssay (NCI).
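Cells were grown in 96-well plates and exposed to each compound for 48 hours at five concentrations; endpoints were interpolated linearly between bracketing concentrations, or set to the highest concentration if not reached. GI50 marks 50% less growth. The concentration for full growth arrest is given as TGI.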

How the values were obtained:
Assay in all cases: growth of human tumour cells (NCI), 48 h
SR leukemia = tested on: SR leukemia
MDA-MB-231 breast = tested on: MDA-MB-231 breast
PC-3 prostate = tested on: PC-3 prostate
KM20L2 colon = tested on: KM20L2 colon
ACHN renal = tested on: ACHN renal
DMS 273 small cell lung = tested on: DMS 273 small cell lung
M14 melanoma = tested on: M14 melanoma
SNB-78 CNS = tested on: SNB-78 CNS
M19-MEL melanoma = tested on: M19-MEL melanoma
MDA-MB-435 = tested on: MDA-MB-435

SMILES | TGI (SR leukemia) [µM] | TGI (MDA-MB-231 breast) [µM] | TGI (PC-3 prostate) [µM] | TGI (KM20L2 colon) [µM] | TGI (ACHN renal) [µM] | TGI (DMS 273 small cell lung) [µM] | TGI (M14 melanoma) [µM] | TGI (SNB-78 CNS) [µM] | TGI (M19-MEL melanoma) [µM] | TGI (MDA-MB-435) [µM] | other results
O=[N+]([O-])c1ccc(C=C2C(Cl)=C(Cl)C(Cl)=C2Cl)cc1 | 7.75 | > 100 | 8.35 |  |  |  |  |  |  |  | GI50 (SR leukemia): 2.04 µM; GI50 (MDA-MB-231 breast): 3.39 µM; GI50 (PC-3 prostate): 2.71 µM
Cc1cc(=O)[nH]c(NN2C(Cl)C(=O)C2c2cccc(O)c2)n1 (stereo not drawn) | > 100 |  |  | 98.5 | > 100 | > 100 | > 100 | > 100 | > 100 |  | 
COc1ccc(C2CC(c3cccc(Nc4ccncc4)c3)=NN2c2cc(Cl)cc(Cl)c2)cc1 (stereo not drawn) | 4.34 |  | 3.16 |  | 3.08 |  |  |  |  | 3.32 | GI50 (ACHN renal): 1.7 µM; GI50 (SR leukemia): 1.53 µM; GI50 (MDA-MB-435): 1.75 µM; GI50 (PC-3 prostate): 1.54 µM
Cc1ccc2c(n1)C(=O)c1[nH]c3ccccc3c1C2=O |  | 73.6 | > 100 |  | 18.6 |  |  |  |  | 2.94 | GI50 (ACHN renal): 2.1 µM; GI50 (MDA-MB-231 breast): 1.85 µM; GI50 (MDA-MB-435): 1.59 µM; GI50 (PC-3 prostate): 1.63 µM
c1ccc(N=C2SC(=NC3CCCCC3)N(C3CCCCC3)C2=Nc2ccccc2)cc1 | > 100 | > 100 | > 100 |  |  |  | > 100 |  |  | > 100 | 
CC(=O)OC1CCC2(C)C3CCC4(C)C(c5ccc(=O)oc5)CC5OC54C3CCC2(O)C1 (stereo not drawn) |  |  |  | 13.2 |  | 6 |  | 12 | 11.8 |  | 
Cc1nc(N)sc1-c1ccnc(Nc2ccc(N3CCOCC3)cc2)n1 | 5.39 | > 100 | > 100 |  | > 100 |  | > 100 |  |  | 36.7 | GI50 (ACHN renal): 0.8 µM; GI50 (SR leukemia): 0.346 µM; GI50 (M14 melanoma): 2.66 µM; GI50 (MDA-MB-231 breast): 3.1 µM; GI50 (MDA-MB-435): 1.86 µM; GI50 (PC-3 prostate): 1.81 µM
CCC[CH2][Ge]([CH2]CCC)([CH2]CCC)[O]C(=O)CC(=O)c1ccccc1 | 33.6 |  |  | 17 | 16.8 | 13.4 | 8.86 |  | 19.3 |  | GI50 (KM20L2 colon): 0.77 µM; GI50 (ACHN renal): 2.67 µM; GI50 (SR leukemia): 0.707 µM; GI50 (DMS 273 small cell lung): 0.752 µM; GI50 (M14 melanoma): 1.42 µM; GI50 (M19-MEL melanoma): 3.83 µM
O=C(OC(=O)n1ccc2ccccc21)n1ccc2ccccc21 |  |  |  | > 100 |  | > 100 |  | > 100 | > 100 |  | 
O=NN(CCCl)C(=O)NC1CCSc2ccccc21 (stereo not drawn) |  |  |  | > 100 |  | > 100 |  | > 100 | > 100 |  | 
COc1ccccc1C1C(C(=O)O)=C(CO)Oc2cc3c(cc21)OCO3 (stereo not drawn) |  |  |  | > 100 | > 100 | > 100 | > 100 | > 100 | > 100 |  | 
NCCCNc1nc2ccccc2c2c(=O)c3cc(OC(F)(F)F)ccc3sc12 |  | 2.6 | 3.19 |  | 2.96 |  | 3.16 |  |  | 2.96 | GI50 (ACHN renal): 1.6 µM; GI50 (M14 melanoma): 1.67 µM; GI50 (MDA-MB-231 breast): 1.26 µM; GI50 (MDA-MB-435): 1.59 µM; GI50 (PC-3 prostate): 1.67 µM
CC1CC=CC(O)C1 (stereo not drawn) |  |  |  | > 100 |  | > 100 |  | > 100 | > 100 |  | 
CC(=O)Oc1cccc2c(/C=N/NC(N)=S)ncc(C)c12 | > 65.9 | 25.8 | 33.6 |  | 2.7 |  | 3.18 |  |  | > 45.9 | 
NC(Cc1cccc([N+](=O)[O-])c1)C(=O)O (stereo not drawn) |  | > 100 | > 100 |  | > 100 |  | > 100 |  |  | > 100 | 
NC(CCCCP(=O)(O)O)C(=O)O (stereo not drawn) | > 100 | > 100 | > 100 |  | > 100 |  | > 100 |  |  | > 100 | 
NNC(N)Nc1ccccc1 (stereo not drawn) | > 100 | > 100 | > 100 |  | > 100 |  | > 100 |  |  | > 100 | 
